Assays:
[1] = interaction with water (water solubility); type: physicochemical; conditions: 2 g in 100 ml distilled water
Method: For this test, 2 g of each sample was dissolved by heating in a beaker, 100 ml of distilled water at 70° C. was added and the mixture was stirred at the constant temperature of 70° C. for about 1 hour, after which it was allowed to cool and examined.

[2] = tested on: atopic dermatitis, ichthyosis and age-associated wrinkles; conditions: in vivo; cited from earlier work

Row | Stability (in words) [1] | Condition of aqueous solution ([1]; 70° C., 1 hour, cooled) | Compound | effect in skin conditions [2]
1 | Phase separation on standing | Emulsion | CCCCCCCCCCCCCCCCCC(=O)OCC(O)CO (centres unmarked) [GLYMSA, Glycerol monostearate] | 
2 |  |  | O=C(O)CC(O)(CC(=O)O)C(=O)O [citric acid] | effective in atopic dermatitis, ichthyosis and reduction of age-associated wrinkles
3 |  |  | CC(O)C(=O)O (centres unmarked) [lactic acid] | effective in atopic dermatitis, ichthyosis and reduction of age-associated wrinkles
4 |  |  | O=C(O)C(O)C(O)C(=O)O (centres unmarked) [tartaric acid] | effective in atopic dermatitis, ichthyosis and reduction of age-associated wrinkles
